In ChEMBL document CHEMBL1147673, “NO-donor phenols: a new class of products endowed with antioxidant and vasodilator properties” (J Med Chem, 2006) one finds Activity and IC50 data, which are given here for 20 molecules.

The target in one assay is T1, Alpha-1D adrenergic receptor (Rattus norvegicus) (UniProt P23944).
T1 sequence (whole entry): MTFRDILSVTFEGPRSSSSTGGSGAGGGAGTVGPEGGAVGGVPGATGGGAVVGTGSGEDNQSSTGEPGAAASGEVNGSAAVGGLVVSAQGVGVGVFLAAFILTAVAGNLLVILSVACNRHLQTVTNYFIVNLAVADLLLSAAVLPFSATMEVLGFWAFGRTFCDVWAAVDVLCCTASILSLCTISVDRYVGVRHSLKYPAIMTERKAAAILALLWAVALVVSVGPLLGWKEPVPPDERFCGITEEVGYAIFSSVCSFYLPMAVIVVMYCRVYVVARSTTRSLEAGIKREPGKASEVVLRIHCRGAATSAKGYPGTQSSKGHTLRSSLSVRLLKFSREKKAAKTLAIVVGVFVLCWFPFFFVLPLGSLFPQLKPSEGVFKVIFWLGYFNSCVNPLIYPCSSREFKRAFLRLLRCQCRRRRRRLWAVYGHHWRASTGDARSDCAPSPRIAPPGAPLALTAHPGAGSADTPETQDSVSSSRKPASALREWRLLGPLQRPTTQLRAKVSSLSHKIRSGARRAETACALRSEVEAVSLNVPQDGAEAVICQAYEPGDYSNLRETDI
The assay can be described thus: Vasodilator activity assessed as ability to relax phenylephrine-induced contraction of Wistar rat aortic strips at 30 uM in presence of 1 uM ODQ. In kind it is functional, tissue-based. Further details: scale not given: the % may be the effect or the level left; call rule not given here. The conditions noted are these: Aorta.
Take `CC(C)(C)c1cc(CC(CO[N+](=O)[O-])[N+](=O)[O-])cc(C(C)(C)C)c1O` (stereo unspecified): the Activity came to 24%.

The next assay concerns Radical scavenging activity. The assay can be described thus: Antioxidant activity assessed as inhibition of TBARS production in ferrous salt/ascorbate-induced lipid peroxidation in Wistar rat liver microsomal membrane. It counts as functional, microsomes.
Conditions: not given
Background: Microsomes from liver hold many membrane-bound enzymes, among them those of drug oxidation.
Usually IC50 stands for the concentration that gives 50% inhibition. On to `COc1cc(CCCOc2no[n+]([O-])c2S(=O)(=O)c2ccccc2)cc(OC)c1O`, for which the IC50 worked out at 3400 nM.
Same read-out and setting: the value for `CC(C)(C)c1cc(CCCO[N+](=O)[O-])cc(C(C)(C)C)c1O` was 2000 nM; that for `Cc1c(C)c2c(c(C)c1O)CCC(C)(COCCCO[N+](=O)[O-])O2` (stereo unspecified) was 150 nM.
Still for that read-out and setting: next, `O=S(=O)(c1ccccc1)c1c(OCCCc2ccc(O)cc2)no[n+]1[O-]`: 47000 nM; `CC(C)(C)c1cc(CCCOc2no[n+]([O-])c2S(=O)(=O)c2ccccc2)cc(C(C)(C)C)c1O`: 2000 nM; `O=[N+]([O-])OCCCc1ccc(O)cc1`: 143000 nM.
For `Cc1ccc(O)cc1` [p-CRESOL], the IC50 came to 290000 nM.
On the same count and under the same terms, the value for `COc1cc(C)cc(OC)c1O` was 18000 nM.
With `CN(CCCc1cc(C(C)(C)C)c(O)c(C(C)(C)C)c1)Cc1no[n+]([O-])c1C(N)=O`, the IC50 turned out to be 1200 nM.
The same measure, in the same setting: next, `COc1cc(CC(CO[N+](=O)[O-])[N+](=O)[O-])cc(OC)c1O` (stereo unspecified): 5400 nM; `O=[N+]([O-])OCC(Cc1ccc(O)cc1)[N+](=O)[O-]` (stereo unspecified): 185000 nM.
Still for that read-out and setting: next, `Cc1c(C)c2c(c(C)c1O)CCC(C)(CN(C)Cc1no[n+]([O-])c1C(N)=O)O2` (stereo unspecified): 140 nM; `Cc1c(C)c2c(c(C)c1O)CCC(C)(COc1no[n+]([O-])c1S(=O)(=O)c1ccccc1)O2` (stereo unspecified): 490 nM; `COc1cc(CCCO[N+](=O)[O-])cc(OC)c1O`: 5900 nM.
For the molecule `Cc1cc(C(C)(C)C)c(O)c(C(C)(C)C)c1` [BUTYLATED HYDROXYTOLUENE], the IC50 was found to be 1700 nM.
Take `Cc1c(C)c2c(c(C)c1O)CCC(C)(C)O2` [APC-100]: the IC50 turned out to be 170 nM.
As for `CC(C)(C)c1cc(CC(CO[N+](=O)[O-])[N+](=O)[O-])cc(C(C)(C)C)c1O` (stereo unspecified), the IC50 was 2600 nM.
For `CCOc1no[n+]([O-])c1S(=O)(=O)c1ccccc1`, the IC50 worked out at 110000 nM.

A further assay deals with Radical scavenging activity. The assay can be described thus: Antioxidant activity assessed as inhibition of TBARS production in ferrous salt/ascorbate-induced lipid peroxidation in Wistar rat liver microsomal membrane at 1 mM.
Conditions: not given
In kind it is functional, microsomes.
Consider `NC(=O)c1c(CO)no[n+]1[O-]`, for which the IC50 result is reported as “Not Active”.
The same measure, in the same setting: the value for `CN(C)Cc1no[n+]([O-])c1C(N)=O` was “Not Active”.
